In PubChem BioAssay (NCI):
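Compound exposure: 48 hours, 5 concentrations, 96-well plates. At the TGI there is no net growth.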

Assays:
Test in all cases: growth of human tumour cells (NCI), 48 h
A498 renal = test system: A498 renal
SNB-19 CNS = test system: SNB-19 CNS
K-562 leukemia = test system: K-562 leukemia
HS 578T breast = test system: HS 578T breast
IGROV1 ovarian = test system: IGROV1 ovarian
DU-145 prostate = test system: DU-145 prostate
OVCAR-5 ovarian = test system: OVCAR-5 ovarian
SN12C renal = test system: SN12C renal
SF-539 CNS = test system: SF-539 CNS
RPMI-8226 leukemia = test system: RPMI-8226 leukemia
CAKI-1 renal = test system: CAKI-1 renal
HCT-15 colon = test system: HCT-15 colon
LOX IMVI melanoma = test system: LOX IMVI melanoma
NCI-H460 lung = test system: NCI-H460 lung
U251 CNS = test system: U251 CNS
HOP-62 NSCLC = test system: HOP-62 NSCLC
KM12 colon = test system: KM12 colon
SK-MEL-28 melanoma = test system: SK-MEL-28 melanoma
HCC-2998 colon = test system: HCC-2998 colon
T-47D breast = test system: T-47D breast
SK-OV-3 ovarian = test system: SK-OV-3 ovarian
NCI-H522 lung = test system: NCI-H522 lung
UACC-62 melanoma = test system: UACC-62 melanoma
ACHN renal = test system: ACHN renal
OVCAR-8 ovarian = test system: OVCAR-8 ovarian
SK-MEL-2 melanoma = test system: SK-MEL-2 melanoma
786-0 renal = test system: 786-0 renal
HT29 colon = test system: HT29 colon
MDA-MB-231 breast = test system: MDA-MB-231 breast
CCRF-CEM leukemia = test system: CCRF-CEM leukemia
MCF7 breast = test system: MCF7 breast
NCI-H23 lung = test system: NCI-H23 lung
MALME-3M melanoma = test system: MALME-3M melanoma
SNB-75 CNS = test system: SNB-75 CNS
TK-10 renal = test system: TK-10 renal
SF-295 CNS = test system: SF-295 CNS
OVCAR-4 ovarian = test system: OVCAR-4 ovarian
MDA-N = test system: MDA-N
MDA-MB-435 = test system: MDA-MB-435
M14 melanoma = test system: M14 melanoma
PC-3 prostate = test system: PC-3 prostate
COLO 205 colon = test system: COLO 205 colon
A549 NSCLC = test system: A549 NSCLC
SF-268 CNS = test system: SF-268 CNS
EKVX NSCLC = test system: EKVX NSCLC
UACC-257 melanoma = test system: UACC-257 melanoma
SW-620 colon = test system: SW-620 colon
HL-60(TB) leukemia = test system: HL-60(TB) leukemia
NCI-H226 lung = test system: NCI-H226 lung
HCT-116 colon = test system: HCT-116 colon
MOLT-4 leukemia = test system: MOLT-4 leukemia
OVCAR-3 ovarian = test system: OVCAR-3 ovarian
BT-549 breast = test system: BT-549 breast
NCI/ADR-RES ovarian = test system: NCI/ADR-RES ovarian
RXF 393 renal = test system: RXF 393 renal
UO-31 renal = test system: UO-31 renal
SK-MEL-5 melanoma = test system: SK-MEL-5 melanoma
HOP-92 NSCLC = test system: HOP-92 NSCLC

CCO/C(O)=C(/C(=N)N1CCOCC1)C(=O)Nc1cccc(Cl)c1
TGI (A498 renal): > 100 µM | TGI (SNB-19 CNS): > 100 µM | TGI (K-562 leukemia): > 100 µM | TGI (HS 578T breast): > 100 µM | TGI (IGROV1 ovarian): > 100 µM | TGI (DU-145 prostate): > 100 µM | TGI (OVCAR-5 ovarian): > 100 µM | TGI (SN12C renal): > 100 µM | TGI (SF-539 CNS): > 100 µM | TGI (RPMI-8226 leukemia): > 100 µM | TGI (CAKI-1 renal): > 100 µM | TGI (HCT-15 colon): > 100 µM | TGI (LOX IMVI melanoma): > 100 µM | TGI (NCI-H460 lung): > 100 µM | TGI (U251 CNS): > 100 µM | TGI (HOP-62 NSCLC): > 100 µM | TGI (KM12 colon): > 100 µM | TGI (SK-MEL-28 melanoma): > 100 µM | TGI (HCC-2998 colon): > 100 µM | TGI (T-47D breast): > 100 µM | TGI (SK-OV-3 ovarian): > 100 µM | TGI (NCI-H522 lung): > 100 µM | TGI (UACC-62 melanoma): > 100 µM | TGI (ACHN renal): > 100 µM | TGI (OVCAR-8 ovarian): > 100 µM | TGI (SK-MEL-2 melanoma): > 100 µM | TGI (786-0 renal): > 100 µM | TGI (HT29 colon): > 100 µM | TGI (MDA-MB-231 breast): > 100 µM | TGI (CCRF-CEM leukemia): > 100 µM | TGI (MCF7 breast): > 100 µM | TGI (NCI-H23 lung): > 100 µM | TGI (MALME-3M melanoma): > 100 µM | TGI (SNB-75 CNS): > 100 µM | TGI (TK-10 renal): > 100 µM | TGI (SF-295 CNS): > 100 µM | TGI (OVCAR-4 ovarian): > 100 µM | TGI (MDA-N): > 100 µM | TGI (MDA-MB-435): > 100 µM | TGI (M14 melanoma): > 100 µM | TGI (PC-3 prostate): > 100 µM | TGI (COLO 205 colon): > 100 µM | TGI (A549 NSCLC): > 100 µM | TGI (SF-268 CNS): > 100 µM | TGI (EKVX NSCLC): > 100 µM | TGI (UACC-257 melanoma): > 100 µM | TGI (SW-620 colon): > 100 µM | TGI (HL-60(TB) leukemia): > 100 µM | TGI (NCI-H226 lung): > 100 µM | TGI (HCT-116 colon): > 100 µM | TGI (MOLT-4 leukemia): > 100 µM | TGI (OVCAR-3 ovarian): > 100 µM | TGI (BT-549 breast): > 100 µM | TGI (NCI/ADR-RES ovarian): > 100 µM | TGI (RXF 393 renal): > 100 µM

CC(=O)O[C@H](C[C@@H](C)[C@H]1C(=O)[C@H](O)[C@@]2(C)C3CC[C@H]4C(C)(C)[C@@H](OC5OCC(O)C(O)C5O)CC[C@@]45C[C@@]35CC[C@]12C)[C@@H]1OC1(C)C (stereo not given in full)
TGI (A498 renal): 29.3 µM | TGI (SNB-19 CNS): 65.4 µM | TGI (K-562 leukemia): 15.3 µM | TGI (HS 578T breast): > 100 µM | TGI (IGROV1 ovarian): 29.7 µM | TGI (DU-145 prostate): 37.7 µM | TGI (OVCAR-5 ovarian): 32 µM | TGI (SN12C renal): 35.7 µM | TGI (SF-539 CNS): 29.8 µM | TGI (RPMI-8226 leukemia): 26.4 µM | TGI (UO-31 renal): 54.7 µM | TGI (CAKI-1 renal): 33.3 µM | TGI (HCT-15 colon): 55.4 µM | TGI (SK-MEL-5 melanoma): 29.7 µM | TGI (LOX IMVI melanoma): > 100 µM | TGI (NCI-H460 lung): 30.6 µM | TGI (U251 CNS): 29.9 µM | TGI (HOP-62 NSCLC): 31.1 µM | TGI (KM12 colon): 53.8 µM | TGI (SK-MEL-28 melanoma): 44.7 µM | TGI (HCC-2998 colon): 29.8 µM | TGI (T-47D breast): 63.6 µM | TGI (SK-OV-3 ovarian): 26.4 µM | TGI (NCI-H522 lung): 33.8 µM | TGI (UACC-62 melanoma): 27 µM | TGI (ACHN renal): 29.4 µM | TGI (OVCAR-8 ovarian): 41.3 µM | TGI (SK-MEL-2 melanoma): 29.5 µM | TGI (786-0 renal): 30.2 µM | TGI (HT29 colon): > 100 µM | TGI (MDA-MB-231 breast): 34.7 µM | TGI (CCRF-CEM leukemia): > 100 µM | TGI (MCF7 breast): 34.8 µM | TGI (NCI-H23 lung): 55.4 µM | TGI (MALME-3M melanoma): 32.4 µM | TGI (SNB-75 CNS): 26.1 µM | TGI (TK-10 renal): 29.8 µM | TGI (SF-295 CNS): 33.6 µM | TGI (OVCAR-4 ovarian): 64.5 µM | TGI (MDA-N): 40.2 µM | TGI (MDA-MB-435): 36.2 µM | TGI (M14 melanoma): 94.5 µM | TGI (PC-3 prostate): 30.4 µM | TGI (COLO 205 colon): 61.3 µM | TGI (A549 NSCLC): > 100 µM | TGI (SF-268 CNS): 46.7 µM | TGI (EKVX NSCLC): 44.3 µM | TGI (UACC-257 melanoma): 34.8 µM | TGI (SW-620 colon): > 100 µM | TGI (HL-60(TB) leukemia): 22.6 µM | TGI (NCI-H226 lung): 33.2 µM | TGI (HCT-116 colon): 38 µM | TGI (OVCAR-3 ovarian): 7.18 µM | TGI (BT-549 breast): 51.4 µM | TGI (HOP-92 NSCLC): 30.6 µM | TGI (NCI/ADR-RES ovarian): > 100 µM | TGI (RXF 393 renal): 34.1 µM

CCCCCCCCCCCCCCCCCCNc1nc(=O)n(C2CC(O)C(COP(=O)(O)OCC(COP(=O)(O)OC3C(CO)OC(n4ccc(N)nc4=O)C3O)OCCCCCCCCCCCCCCCCCC)O2)cc1F (stereo not given)
TGI (A498 renal): > 100 µM | TGI (SNB-19 CNS): 56.5 µM | TGI (K-562 leukemia): > 100 µM | TGI (HS 578T breast): > 100 µM | TGI (IGROV1 ovarian): > 100 µM | TGI (DU-145 prostate): > 100 µM | TGI (OVCAR-5 ovarian): > 100 µM | TGI (SN12C renal): > 100 µM | TGI (SF-539 CNS): > 100 µM | TGI (RPMI-8226 leukemia): 74.2 µM | TGI (UO-31 renal): > 100 µM | TGI (CAKI-1 renal): > 100 µM | TGI (HCT-15 colon): > 100 µM | TGI (SK-MEL-5 melanoma): > 100 µM | TGI (LOX IMVI melanoma): 42.5 µM | TGI (NCI-H460 lung): 30.9 µM | TGI (U251 CNS): 34.6 µM | TGI (HOP-62 NSCLC): > 100 µM | TGI (KM12 colon): > 100 µM | TGI (SK-MEL-28 melanoma): > 100 µM | TGI (HCC-2998 colon): > 100 µM | TGI (T-47D breast): > 100 µM | TGI (SK-OV-3 ovarian): > 100 µM | TGI (NCI-H522 lung): > 100 µM | TGI (UACC-62 melanoma): > 100 µM | TGI (ACHN renal): > 100 µM | TGI (OVCAR-8 ovarian): > 100 µM | TGI (SK-MEL-2 melanoma): > 100 µM | TGI (786-0 renal): 33.3 µM | TGI (HT29 colon): > 100 µM | TGI (MDA-MB-231 breast): > 100 µM | TGI (CCRF-CEM leukemia): > 100 µM | TGI (MCF7 breast): > 100 µM | TGI (NCI-H23 lung): > 100 µM | TGI (MALME-3M melanoma): > 100 µM | TGI (SNB-75 CNS): > 100 µM | TGI (TK-10 renal): > 100 µM | TGI (SF-295 CNS): > 100 µM | TGI (OVCAR-4 ovarian): > 100 µM | TGI (MDA-N): > 100 µM | TGI (MDA-MB-435): > 100 µM | TGI (M14 melanoma): > 100 µM | TGI (PC-3 prostate): 35.4 µM | TGI (COLO 205 colon): 37.7 µM | TGI (A549 NSCLC): > 100 µM | TGI (SF-268 CNS): > 100 µM | TGI (EKVX NSCLC): > 100 µM | TGI (UACC-257 melanoma): > 100 µM | TGI (SW-620 colon): > 100 µM | TGI (HL-60(TB) leukemia): > 100 µM | TGI (NCI-H226 lung): > 100 µM | TGI (HCT-116 colon): > 100 µM | TGI (MOLT-4 leukemia): > 100 µM | TGI (OVCAR-3 ovarian): > 100 µM | TGI (BT-549 breast): > 100 µM | TGI (HOP-92 NSCLC): > 100 µM | TGI (NCI/ADR-RES ovarian): > 100 µM | TGI (RXF 393 renal): 40.8 µM
